Measurements: ChEMBL document CHEMBL3856189, “Synthesis of novel diterpenoid analogs with in-vivo antitumor activity” (Eur J Med Chem, 2016)

What was measured:
[1] = Antiproliferative activity against human MCF7 cells after 96 hrs by SRB assay; type: functional, cell-based; conditions: MCF7, 96 h
[2] = Antiproliferative activity against human MDA-MB-231 cells after 96 hrs by SRB assay; type: functional, cell-based; conditions: MDA-MB-231, 96 h
[3] = Antiproliferative activity against human T47D cells after 96 hrs by SRB assay; type: functional, cell-based
T47D = assay: Selectivity index, ratio of IC50 for HAF cells to IC50 for human T47D cells; type: functional
MCF7 = assay: Selectivity index, ratio of IC50 for HAF cells to IC50 for human MCF7 cells; type: functional
[4] = Antiproliferative activity against human HT-29 cells after 96 hrs by SRB assay; type: functional, cell-based; conditions: HT-29, 96 h
PC-3 = assay: Selectivity index, ratio of IC50 for HAF cells to IC50 for human PC3 cells; type: functional
HL-60 = assay: Selectivity index, ratio of IC50 for HAF cells to IC50 for human HL60 cells; type: functional
[5] = Antiproliferative activity against HAF cells after 96 hrs by SRB assay; type: cell-based; conditions: Homo sapiens
[6] = Antiproliferative activity against human DU145 cells after 96 hrs by SRB assay; type: functional, cell-based; conditions: DU-145, 96 h
[7] = Selectivity index, ratio of IC50 for HAF cells to IC50 for human MDA-MB-231 cells; type: functional
HCT-116 = assay: Selectivity index, ratio of IC50 for HAF cells to IC50 for human HCT116 cells; type: functional
DU-145 = assay: Selectivity index, ratio of IC50 for HAF cells to IC50 for human DU145 cells; type: functional
[8] = Antiproliferative activity against human HCT116 cells after 96 hrs by SRB assay; type: functional, cell-based; conditions: HCT-116, 96 h
[9] = Antiproliferative activity against human HL60 cells after 96 hrs by SRB assay; type: functional, cell-based; conditions: HL-60, 96 h
[10] = Selectivity index, ratio of IC50 for HAF cells to IC50 for human HT-29 cells; type: functional
[11] = Antiproliferative activity against human PC3 cells after 96 hrs by SRB assay; type: functional, cell-based; conditions: PC-3, 96 h

| SMILES | IC50 [1] | IC50 [2] | IC50 [3] | other results |
| --- | --- | --- | --- | --- |
| COc1cc2c(cc1C(=O)Nc1ccc(N)cc1)CC[C@H]1C(C)(C)[C@@H](O)CC[C@]21C | 5210 nM | 3090 nM | 230 nM | – |
| COc1cc2c(cc1C(=O)Nc1ccccc1C)CC[C@H]1C(C)(C)[C@@H](O)CC[C@]21C | 3560 nM | 2300 nM | 510 nM | – |
| COc1cc2c(cc1C(=O)Nc1ccccc1N)CC[C@H]1C(C)(C)[C@@H](O)CC[C@]21C | 11200 nM | 4310 nM | 550 nM | – |
| COc1ccc(OC(=O)c2cc3c(cc2OC)[C@@]2(C)CC[C@H](O)C(C)(C)[C@@H]2CC3)cc1 | > 25000 nM | 14300 nM | 5350 nM | – |
| COc1cc2c(cc1C(=O)Nc1ccc(Cl)cc1)CC[C@H]1C(C)(C)[C@@H](O)CC[C@]21C | 1460 nM | 1030 nM | 150 nM | – |
| COC(=O)c1ccccc1NC(=O)c1cc2c(cc1OC)[C@@]1(C)CC[C@H](O)C(C)(C)[C@@H]1CC2 | 4310 nM | 7980 nM | 1220 nM | – |
| CCNC(=O)c1cc2c(cc1OC)[C@@]1(C)CC[C@H](O)C(C)(C)[C@@H]1CC2 | > 25000 nM | 7650 nM | > 25000 nM | – |
| COc1cc2c(cc1C(=O)Nc1ccc(C)cc1)CC[C@H]1C(C)(C)[C@@H](O)CC[C@]21C | 220 nM | 1220 nM | 230 nM | Ratio IC50 (T47D): 3.1; Ratio IC50 (MCF7): 3.1; IC50 [4]: 280 nM; Ratio IC50 (PC-3): 3.1; Ratio IC50 (HL-60): 3.1; IC50 [5]: 3850 nM; IC50 [6]: 2090 nM; Ratio IC50 [7]: 3.1; Ratio IC50 (HCT-116): 3.1; Ratio IC50 (DU-145): 3.1; IC50 [8]: 940 nM; IC50 [9]: 3520 nM; Ratio IC50 [10]: 3.1; IC50 [11]: 1480 nM |
| COc1cc2c(cc1C(=O)Oc1ccccc1)CC[C@H]1C(C)(C)[C@@H](O)CC[C@]21C | > 25000 nM | > 25000 nM | > 25000 nM | – |
| COc1cc2c(cc1C(=O)Nc1cccc(Cl)c1)CC[C@H]1C(C)(C)[C@@H](O)CC[C@]21C | 2230 nM | 990 nM | 260 nM | – |
| COc1cc2c(cc1C(=O)Nc1ccccc1Cl)CC[C@H]1C(C)(C)[C@@H](O)CC[C@]21C | 6550 nM | 3690 nM | 820 nM | – |
| COc1cc2c(cc1C(=O)NC1CCCCC1)CC[C@H]1C(C)(C)[C@@H](O)CC[C@]21C | > 25000 nM | > 25000 nM | 10900 nM | – |
| COc1ccccc1NC(=O)c1cc2c(cc1OC)[C@@]1(C)CC[C@H](O)C(C)(C)[C@@H]1CC2 | 1960 nM | 200 nM | 30 nM | – |
